# The source made the active and inactive calls. The rule behind the calls is not given here.
# Test system: Fusarium verticillioides
# Test: Antifungal activity against Fusarium moniliforme at 50 ug/ml after 48 hrs by agar well diffusion method
# Type: functional
# Conditions: read-out: DIZ
row,SMILES,zone of inhibition at 50 µg/mL
1,Cc1cccc2nc(N/N=C/c3ccc(F)cc3F)sc12,23 mm

# Test system: Aspergillus niger
# Test: Antifungal activity against Aspergillus niger at 50 ug/ml after 48 hrs by agar well diffusion method
# Type: functional
# Conditions: read-out: DIZ
row,SMILES,zone of inhibition at 50 µg/mL
1,Cc1cccc2nc(N/N=C/c3ccc(F)cc3F)sc12,24 mm

# Test system: Staphylococcus aureus
# Test: Antibacterial activity against Staphylococcus aureus at 50 ug/ml after 24 hrs by agar well diffusion method
# Type: functional
# Conditions: read-out: DIZ
row,SMILES,zone of inhibition at 50 µg/mL
1,Cc1cccc2nc(N/N=C/c3ccc(F)cc3F)sc12,8 mm

# Test system: Fusarium verticillioides
# Test: Antifungal activity against Fusarium moniliforme after 48 to 72 hrs by microdilution method
# Type: functional
# Conditions: not given
row,SMILES,MIC
1,Cc1cccc2nc(N/N=C/c3ccc(F)cc3F)sc12,20 mg/L

# Test system: Escherichia coli
# Test: Antibacterial activity against Escherichia coli at 25 ug/ml after 24 hrs by agar well diffusion method
# Type: functional
# Conditions: read-out: DIZ
row,SMILES,zone of inhibition at 25 µg/mL
1,Cc1cccc2nc(N/N=C/c3ccc(F)cc3F)sc12,4 mm

# Test system: Staphylococcus aureus
# Test: Antibacterial activity against methicillin resistant Staphylococcus aureus MRSA090 at 25 ug/ml after 24 hrs by agar well diffusion method
# Type: functional
# Conditions: MRSA090, 24 h, read-out: DIZ
row,SMILES,zone of inhibition at 25 µg/mL
1,Cc1cccc2nc(N/N=C/c3ccc(F)cc3F)sc12,10 mm

# Test system: Escherichia coli
# Test: Antibacterial activity against Escherichia coli at 50 ug/ml after 24 hrs by agar well diffusion method
# Type: functional
# Conditions: read-out: DIZ
row,SMILES,zone of inhibition at 50 µg/mL
1,Cc1cccc2nc(N/N=C/c3ccc(F)cc3F)sc12,7 mm

# Test system: Fusarium oxysporum
# Test: Antifungal activity against Fusarium oxysporum at 25 ug/ml after 48 hrs by agar well diffusion method
# Type: functional
# Conditions: read-out: DIZ
row,SMILES,zone of inhibition at 25 µg/mL
1,Cc1cccc2nc(N/N=C/c3ccc(F)cc3F)sc12,10 mm

# Test system: Aspergillus niger
# Test: Antifungal activity against Aspergillus niger after 48 to 72 hrs by microdilution method
# Type: functional
# Conditions: not given
row,SMILES,MIC
1,Cc1cccc2nc(N/N=C/c3ccc(F)cc3F)sc12,26 mg/L

# Test system: Staphylococcus aureus
# Test: Antibacterial activity against methicillin resistant Staphylococcus aureus MRSA090 at 75 ug/ml after 24 hrs by agar well diffusion method
# Type: functional
# Conditions: MRSA090, 24 h, read-out: DIZ
row,SMILES,zone of inhibition at 75 µg/mL
1,Cc1cccc2nc(N/N=C/c3ccc(F)cc3F)sc12,16 mm

# Test system: Klebsiella pneumoniae
# Test: Antibacterial activity against Klebsiella pneumoniae at 25 ug/ml after 24 hrs by agar well diffusion method
# Type: functional
# Conditions: not given
row,SMILES,diameter of the inhibition zone (DIZ)
1,Cc1cccc2nc(N/N=C/c3ccc(F)cc3F)sc12,inactive

# Test system: Fusarium oxysporum
# Test: Antifungal activity against Fusarium oxysporum at 75 ug/ml after 48 hrs by agar well diffusion method
# Type: functional
# Conditions: read-out: DIZ
row,SMILES,zone of inhibition at 75 µg/mL
1,Cc1cccc2nc(N/N=C/c3ccc(F)cc3F)sc12,16 mm

# Test system: Fusarium verticillioides
# Test: Antifungal activity against Fusarium moniliforme at 75 ug/ml after 48 hrs by agar well diffusion method
# Type: functional
# Conditions: read-out: DIZ
row,SMILES,zone of inhibition at 75 µg/mL
1,Cc1cccc2nc(N/N=C/c3ccc(F)cc3F)sc12,28 mm

# Test system: Klebsiella pneumoniae
# Test: Antibacterial activity against Klebsiella pneumoniae at 100 ug/ml after 24 hrs by agar well diffusion method
# Type: functional
# Conditions: not given
row,SMILES,diameter of the inhibition zone (DIZ)
1,Cc1cccc2nc(N/N=C/c3ccc(F)cc3F)sc12,inactive

# Test system: Fusarium oxysporum
# Test: Antifungal activity against Fusarium oxysporum at 50 ug/ml after 48 hrs by agar well diffusion method
# Type: functional
# Conditions: read-out: DIZ
row,SMILES,zone of inhibition at 50 µg/mL
1,Cc1cccc2nc(N/N=C/c3ccc(F)cc3F)sc12,13 mm

# Test system: Aspergillus niger
# Test: Antifungal activity against Aspergillus niger at 100 ug/ml after 48 hrs by agar well diffusion method
# Type: functional
# Conditions: read-out: DIZ
row,SMILES,zone of inhibition at 100 µg/mL
1,Cc1cccc2nc(N/N=C/c3ccc(F)cc3F)sc12,30 mm

# Test system: Bacillus subtilis
# Test: Antibacterial activity against Bacillus subtilis incubated for overnight by microdilution method
# Type: functional
# Conditions: not given
row,SMILES,MIC
1,Cc1cccc2nc(N/N=C/c3ccc(F)cc3F)sc12,25 mg/L

# Test system: Staphylococcus aureus
# Test: Antibacterial activity against Staphylococcus aureus at 100 ug/ml after 24 hrs by agar well diffusion method
# Type: functional
# Conditions: read-out: DIZ
row,SMILES,zone of inhibition at 100 µg/mL
1,Cc1cccc2nc(N/N=C/c3ccc(F)cc3F)sc12,15 mm

# Test system: Fusarium verticillioides
# Test: Antifungal activity against Fusarium moniliforme at 100 ug/ml after 48 hrs by agar well diffusion method
# Type: functional
# Conditions: read-out: DIZ
row,SMILES,zone of inhibition at 100 µg/mL
1,Cc1cccc2nc(N/N=C/c3ccc(F)cc3F)sc12,33 mm

# Test system: Escherichia coli
# Test: Antibacterial activity against Escherichia coli at 100 ug/ml after 24 hrs by agar well diffusion method
# Type: functional
# Conditions: read-out: DIZ
row,SMILES,zone of inhibition at 100 µg/mL
1,Cc1cccc2nc(N/N=C/c3ccc(F)cc3F)sc12,14 mm

# Test system: Bacillus subtilis
# Test: Antibacterial activity against Bacillus subtilis at 100 ug/ml after 24 hrs by agar well diffusion method
# Type: functional
# Conditions: read-out: DIZ
row,SMILES,zone of inhibition at 100 µg/mL
1,Cc1cccc2nc(N/N=C/c3ccc(F)cc3F)sc12,15 mm

# Test system: Staphylococcus aureus
# Test: Antibacterial activity against methicillin resistant Staphylococcus aureus MRSA090 at 50 ug/ml after 24 hrs by agar well diffusion method
# Type: functional
# Conditions: MRSA090, 24 h, read-out: DIZ
row,SMILES,zone of inhibition at 50 µg/mL
1,Cc1cccc2nc(N/N=C/c3ccc(F)cc3F)sc12,13 mm

# Test system: Bacillus subtilis
# Test: Antibacterial activity against Bacillus subtilis at 25 ug/ml after 24 hrs by agar well diffusion method
# Type: functional
# Conditions: read-out: DIZ
row,SMILES,zone of inhibition at 25 µg/mL
1,Cc1cccc2nc(N/N=C/c3ccc(F)cc3F)sc12,7 mm

# Test system: Klebsiella pneumoniae
# Test: Antibacterial activity against Klebsiella pneumoniae at 50 ug/ml after 24 hrs by agar well diffusion method
# Type: functional
# Conditions: not given
row,SMILES,diameter of the inhibition zone (DIZ)
1,Cc1cccc2nc(N/N=C/c3ccc(F)cc3F)sc12,inactive

# Test system: Aspergillus niger
# Test: Antifungal activity against Aspergillus niger at 25 ug/ml after 48 hrs by agar well diffusion method
# Type: functional
# Conditions: read-out: DIZ
row,SMILES,zone of inhibition at 25 µg/mL
1,Cc1cccc2nc(N/N=C/c3ccc(F)cc3F)sc12,17 mm

# Test system: Klebsiella pneumoniae
# Test: Antibacterial activity against Klebsiella pneumoniae incubated for overnight by microdilution method
# Type: functional
# Conditions: not given
row,SMILES,MIC
1,Cc1cccc2nc(N/N=C/c3ccc(F)cc3F)sc12,22 mg/L

# Test system: Staphylococcus aureus
# Test: Antibacterial activity against methicillin resistant Staphylococcus aureus MRSA090 at 100 ug/ml after 24 hrs by agar well diffusion method
# Type: functional
# Conditions: MRSA090, 24 h, read-out: DIZ
row,SMILES,zone of inhibition at 100 µg/mL
1,Cc1cccc2nc(N/N=C/c3ccc(F)cc3F)sc12,19 mm

# Test system: Escherichia coli
# Test: Antibacterial activity against Escherichia coli at 75 ug/ml after 24 hrs by agar well diffusion method
# Type: functional
# Conditions: read-out: DIZ
row,SMILES,zone of inhibition at 75 µg/mL
1,Cc1cccc2nc(N/N=C/c3ccc(F)cc3F)sc12,11 mm

# Test system: Bacillus subtilis
# Test: Antibacterial activity against Bacillus subtilis at 50 ug/ml after 24 hrs by agar well diffusion method
# Type: functional
# Conditions: read-out: DIZ
row,SMILES,zone of inhibition at 50 µg/mL
1,Cc1cccc2nc(N/N=C/c3ccc(F)cc3F)sc12,10 mm

# Test system: Escherichia coli
# Test: Antibacterial activity against Escherichia coli incubated for overnight by microdilution method
# Type: functional
# Conditions: not given
row,SMILES,MIC
1,Cc1cccc2nc(N/N=C/c3ccc(F)cc3F)sc12,24 mg/L

# Test system: Staphylococcus aureus
# Test: Antibacterial activity against Staphylococcus aureus incubated for overnight by microdilution method
# Type: functional
# Conditions: not given
row,SMILES,MIC
1,Cc1cccc2nc(N/N=C/c3ccc(F)cc3F)sc12,23 mg/L

# Test system: Bacillus subtilis
# Test: Antibacterial activity against Bacillus subtilis at 75 ug/ml after 24 hrs by agar well diffusion method
# Type: functional
# Conditions: read-out: DIZ
row,SMILES,zone of inhibition at 75 µg/mL
1,Cc1cccc2nc(N/N=C/c3ccc(F)cc3F)sc12,13 mm

# Test system: Fusarium oxysporum
# Test: Antifungal activity against Fusarium oxysporum at 100 ug/ml after 48 hrs by agar well diffusion method
# Type: functional
# Conditions: read-out: DIZ
row,SMILES,zone of inhibition at 100 µg/mL
1,Cc1cccc2nc(N/N=C/c3ccc(F)cc3F)sc12,20 mm

# Test system: Fusarium oxysporum
# Test: Antifungal activity against Fusarium oxysporum after 48 to 72 hrs by microdilution method
# Type: functional
# Conditions: not given
row,SMILES,MIC
1,Cc1cccc2nc(N/N=C/c3ccc(F)cc3F)sc12,18 mg/L

# Test system: Fusarium verticillioides
# Test: Antifungal activity against Fusarium moniliforme at 25 ug/ml after 48 hrs by agar well diffusion method
# Type: functional
# Conditions: read-out: DIZ
row,SMILES,zone of inhibition at 25 µg/mL
1,Cc1cccc2nc(N/N=C/c3ccc(F)cc3F)sc12,18 mm

# Test system: Aspergillus niger
# Test: Antifungal activity against Aspergillus niger at 75 ug/ml after 48 hrs by agar well diffusion method
# Type: functional
# Conditions: read-out: DIZ
row,SMILES,zone of inhibition at 75 µg/mL
1,Cc1cccc2nc(N/N=C/c3ccc(F)cc3F)sc12,29 mm

# Test system: Staphylococcus aureus
# Test: Antibacterial activity against Staphylococcus aureus at 25 ug/ml after 24 hrs by agar well diffusion method
# Type: functional
# Conditions: read-out: DIZ
row,SMILES,zone of inhibition at 25 µg/mL
1,Cc1cccc2nc(N/N=C/c3ccc(F)cc3F)sc12,5 mm

# Test system: Staphylococcus aureus
# Test: Antibacterial activity against Staphylococcus aureus at 75 ug/ml after 24 hrs by agar well diffusion method
# Type: functional
# Conditions: read-out: DIZ
row,SMILES,zone of inhibition at 75 µg/mL
1,Cc1cccc2nc(N/N=C/c3ccc(F)cc3F)sc12,11 mm

# Test system: Klebsiella pneumoniae
# Test: Antibacterial activity against Klebsiella pneumoniae at 75 ug/ml after 24 hrs by agar well diffusion method
# Type: functional
# Conditions: not given
row,SMILES,diameter of the inhibition zone (DIZ)
1,Cc1cccc2nc(N/N=C/c3ccc(F)cc3F)sc12,inactive
